In US12257253B2, “Triamterene or nolatrexed for use in the treatment of phenylketonuria” (SOM INNOVATION BIOTECH, S.A., priority 2019, dated 2025):
Counter-ions that a name gives are not always drawn. Like-named read-outs stand apart in the source and are kept apart here.

Columns and labels:
Arg261Gln (R261Q) PAH [1] = molecular target: T1, Arg261Gln (R261Q) PAH (Homo sapiens (Human), UniProt P00439, R261Q); assay: Thermal stability shift assay (DSF); assay type: binding; conditions: compound 30 μM (BH4 43 μM); for ΔTm1 R261Q PAH: shift of transition midpoint 1 vs NCC; for ΔTm2 R261Q PAH: shift of transition midpoint 2 vs NCC
From the text: (§1) 1. Thermal Stability Shift Assay
(§2) Thórólfsson et al. (Biochemistry, 2002, 41(24), 7573-7585) describe that the thermal denaturation of hPAH occurs in three stages: (i) unfolding of the four regulatory domains, which is responsible for the low-temperature calorimetric transition (ii) unfolding of two (out of the four) catalytic domains, which is responsible for the high-temperature transition; and (iii) irreversible protein denaturation. The most important domain for stabilization is the regulatory domain.
(§3) Thus, to test the compound effect on thermal stability of the target protein a thermal stability shift assay (also called differential scanning fluorimetry (DSF)) was performed [Niesen F. H. et al., Nat Protoc., 2007, 2(9), 2212-2221; Gersting S. W. et al., Human Molecular Genetics, 2010, 19(10), 2039-2049; and Gersting S. W. et al., J. Biol Chem. 2010, 285(40), 30686-30697]. DSF monitors thermal unfolding of proteins in the presence of a fluorescent dye (SYPRO Orange; λexc=465 nm, λem=610 nm) and was performed using a real-time PCR instrument (Applied BioSystems 7000HT Fast Real-Time PCR System). Compounds that increase the midpoints of thermal denaturation (Tm) are considered to bind and stabilize the protein.
(§4) In brief, purified wild-type or Arg261Gln (which is the most frequent mutation responsive to BH4) PAH proteins (diluted in 20 mM NaHEPES, pH 7.0 and 200 mM NaCl, 2 mM DTT to 2 mg/ml) were used at a final concentration of 0.2 mg/ml protein per sample. The compounds were tested at a final concentration of 30 μM. A no compound control (NCC) was used according to the compound solvent at a final concentration of 2% (H2O, DMSO, ethanol, methanol). As a positive control we used the natural cofactor 6R-L-erythro-5,6,7,8-tetrahydrobiopterin (BH4, CAS 69056-38-8) stabilized in 100 mM dithiothreitol (DTT), in a final concentration of 43 μM. To exclude unspecific effects of the compound to the dye, a no protein control (NPC) was added (buffer, compound, dye). The measurement was performed in duplicates and samples were denatured by scanning a temperature range of 20 to 75° C. at a scan rate of 0.5° C./min.
(§5) The data was normalized and the respective Tm values were calculated by bi-phasic equation to determine temperatures at which half denaturation occurred (Software GraphPadPrism). To identify compound specific effects on the thermal stability of the target protein, the reference Tm (NCC) was used to calculate the temperature shift between compound treated and not treated protein (Tm−TmNCC), from duplicates, to provide transition midpoints shifts (ΔTm1 and ΔTm2). Tm1 and Tm2 are the two different transition mid point of the unfolding process of the protein as the tetrameric protein PAH unfolds in two steps due to its domains. A shift in Tm1 of 2° C. reflects a relevant increase in thermal stability on the regulatory domain and, thus, is considered a positive result.

wild-type PAH [2] = molecular target: T2, wild-type PAH (Homo sapiens (Human), UniProt P00439); assay: Thermal stability shift assay (DSF); assay type: binding; conditions: compound 30 μM (BH4 43 μM); for ΔTm1 WT PAH: shift of transition midpoint 1 vs NCC; for ΔTm2 WT PAH: shift of transition midpoint 2 vs NCC
From the text: as §1, §2, §3, §4, §5

Arg261Gln (R261Q) PAH [3] = molecular target: T1, Arg261Gln (R261Q) PAH; assay: Phenylalanine hydroxylase residual protein amount (dot blot, COS-7 lysates); assay type: cell-based; conditions: COS-7 cells, compound 10 μM (sepiapterin 5 μM), read-out: PAH protein level (immune blot signal) R261Q PAH Mean
Protocol: (§6) 3. Phenylalanine Hydroxylase Residual Protein Amount
(§7) The analysis of the residual PAH protein amount was based on the method described in Gersting S. W. et al., Human Molecular Genetics, 2010, 19(10), 2039-2049 with modifications.
(§8) Detection of the residual PAH protein amount was performed as a dot blot using the lysates obtained from the cell culture where transiently transfected COS-7 cells (with wild-type PAH or PAH variant) were exposed for 48 h to compounds. The experiment was carried out from the same samples as used for measuring enzyme activities.
(§9) 2 μl of the lysate were dropped onto the nitrocellulose membrane. The membrane was allowed to air dry at room temperature for 30 min followed by 40 min blocking in 5% milk in TBS-Tween (room temperature). The membrane was incubated with the mouse monoclonal primary antibody specific for PAH (Millipore, Cat. No. MAB5278, 1:1000 dilution in 5% milk in TBS-Tween) for overnight at 4° C. Next, the membrane was washed (3×10 min in TBS-Tween) and incubated with the secondary HRP-conjugated antibody (anti-mouse antibody; Santa Cruz Biotechnology, Inc., Cat. No. sc-2005; 1:1000 dilution in 5% milk in TBS-Tween) followed by thorough washing in TBS-Tween (3×10 min) and distilled water (1×10 min). Blots were visualized with Pierce™ ECL substrate (ThermoFisher Scientific, Cat No. 32106) and chemiluminescence was monitored with a DIANA III Imaging system or ChemiDoc™ MP Imaging System (BioRad). To analyze the compound effect on the PAH protein amount densitometry analysis was performed using ImageJ Software.
(§10) The effect of compound on PAH protein amount was calculated from triplicates. As for determination of the enzyme activity the background of the not transfected cells (NT) was subtracted from the transfected cells (NCC or compound treated). In the next step delta of the NCC versus compound treated cells was calculated. Residual protein amount greater than 100% represents an increase in the stability of the enzyme with respect to NCC.

wild-type PAH [4] = molecular target: T2, wild-type PAH; assay: as above; assay type: cell-based; conditions: COS-7 cells, compound 10 μM (sepiapterin 5 μM), read-out: PAH protein level (immune blot signal) WT PAH Mean
Protocol: as §6, §7, §8, §9, §10

wild-type PAH [5] = molecular target: T2, wild-type PAH; assay: Isothermal titration calorimetry; assay type: binding; conditions: ITC; for Kd / N (stoichiometry) / ΔG / ΔH / −TΔS: 25° C., WT PAH
From the text: 4. Isothermal Titration Calorimetry
Isothermal titration calorimetry (ITC) is a quantitative physical technique used to determine binding affinities of small molecules to proteins or other larger molecules [Freyer M. W. and Lewis E. A., Methods in Cell Biology, 2008, vol. 4, Chapter 4, pages 79-113]. The measurement detects changes of heat generated or absorbed when molecules interact, generate binding kinetics and thermodynamic profile of the molecular interaction. The following parameters are determined: KD (equilibrium dissociation constant), N (stoichiometry of the interaction (mol ligand/mol complex)), ΔH (enthalpy change), ΔG (Gibbs energy), T (temperature) and ΔS (entropy change).
ITC experiments were performed at 25° C. using a MicroCal PEAQ-ITC microcalorimeter (Malvern). PAH proteins were prepared in a HEPES buffer (HEPES 20 mM Hepes, 0.2M NaCl, 1 mM DTT, pH 7.0) containing 5% DMSO, in order to match the final DMSO concentration of the compounds dilutions. The protein concentration used (30 μM) was determined using ultraviolet (UV) absorbance at 280 nm. The compounds ([…]) were prepared using the exact same buffer. Twelve injections of 3 μL of compound/ligand were titrated into the sample cell (containing the protein) over 31 min with a stirring speed of 750 rpm. Data was baseline adjusted by subtracting the background obtained from equivalent injections of compound into the buffer solution. The titration curves were analyzed using MicroCal PEAQ-ITC analytics software (version 1.1.0.1262, Malvern Instruments Ltd.) using a model that assumes a set of identical binding sites where the total heat of the solution is calculated as:
[formula] where n is the number of binding sites, Mt is the total protein concentration in the cell, ΔH is the molar heat of ligand binding, Xt is the total concentration of ligand, and K the binding constant (K=1/KD). The heat released per injection (i), ΔQ(i), is calculated following the equation below, which compensates for the volume that is added in each injection (ΔVi). V0 is the initial volume in the cell.
The parameters, n, K, and ΔH are determined using non-linear square fitting using the Levenberg-Marquardt algorithm.

T1 sequence (P00439 whole entry R261Q): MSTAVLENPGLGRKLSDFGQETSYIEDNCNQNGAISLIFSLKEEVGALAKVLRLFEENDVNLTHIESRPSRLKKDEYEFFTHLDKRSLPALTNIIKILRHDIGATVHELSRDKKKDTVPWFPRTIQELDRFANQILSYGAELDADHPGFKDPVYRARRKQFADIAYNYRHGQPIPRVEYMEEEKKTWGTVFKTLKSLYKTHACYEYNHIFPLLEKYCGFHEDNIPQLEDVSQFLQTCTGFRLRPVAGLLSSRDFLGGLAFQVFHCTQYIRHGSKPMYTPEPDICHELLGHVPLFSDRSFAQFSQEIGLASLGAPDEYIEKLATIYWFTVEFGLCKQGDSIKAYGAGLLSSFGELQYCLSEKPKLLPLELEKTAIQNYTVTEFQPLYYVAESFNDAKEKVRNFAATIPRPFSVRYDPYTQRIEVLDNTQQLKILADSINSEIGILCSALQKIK
T2 sequence (P00439 whole entry): as the sequence (P00439 whole entry R261Q) above, with Q261R counted along it

SMILES	ΔTm1 R261Q PAH (Arg261Gln (R261Q) PAH [1]) [°C]	ΔTm2 R261Q PAH (Arg261Gln (R261Q) PAH [1]) [°C]	ΔTm1 WT PAH (wild-type PAH [2]) [°C]	ΔTm2 WT PAH (wild-type PAH [2]) [°C]	PAH protein level (% of control) at 10 µM (Arg261Gln (R261Q) PAH [3]; 48 h) [%]	PAH protein level (% of control) at 10 µM (wild-type PAH [4]; 48 h) [%]	also measured
CN1CCc2cc3c(cc2C1O)OCO3 (centres unmarked) [Hydrastinine HCl, 6-methyl-7,8-dihydro-5H-[1,3]dioxolo[4,5-g]isoquinolin-5-ol]	2.46	0.04	−0.49	6.10	141	164	Kd (wild-type PAH [5]): 2.99 ± 3.2 µM; N (stoichiometry) (wild-type PAH [5]): 1.310 ± 0.2 sites; ΔG (wild-type PAH [5]): -7.55 kcal/mol; ΔH (wild-type PAH [5]): 2.29 ± 0.55 kcal/mol; −TΔS (wild-type PAH [5]): -9.82 kcal/mol; Kd (in words) (wild-type PAH [5]; recombinant PAH): low micromolar range
C[C@H](O)[C@H](O)[C@H]1CNc2[nH]c(N)nc(=O)c2N1 [BH4, 6R-L-erythro-5,6,7,8-tetrahydrobiopterin]	2.54	12.17	0.20	1.88			Kd (wild-type PAH [5]): 40.7 ± 14.1 µM; N (stoichiometry) (wild-type PAH [5]): 0.936 ± 0.3 sites; ΔG (wild-type PAH [5]): -6 kcal/mol; ΔH (wild-type PAH [5]): -17.9 ± 7.91 kcal/mol; −TΔS (wild-type PAH [5]): 11.9 kcal/mol
CC(C)[C@H](N)C(=O)OCCOCn1cnc2c(=O)[nH]c(N)nc21 [Valacyclovir HCl, 2-[(2-amino-6-oxo-3H-purin-9-yl)methoxy]ethyl (2S)-2-amino-3-methylbutanoate]					104	146	
C=CCn1c(=O)n([C@@H]2O[C@H](CO)C(O)C2O)c2nc(N)[nH]c(=O)c21 (stereo in doubt) [Loxoribine, 2-amino-9-[(2R,3R,4S,5R)-3,4-dihydroxy-5-(hydroxymethyl)oxolan-2-yl]-7-prop-2-enyl-3H-purine-6,8-dione]			3.57				
CCc1cccc2cc(C(O)CNC(C)(C)C)oc12 (centres unmarked) [S-Bufuralol HCl, 2-(tert-butylamino)-1-(7-ethyl-1-benzofuran-2-yl)ethan-1-ol]	3.73	0.92	1.05	0.24			
CCc1cccc2cc(C(O)CNC(C)(C)C)oc12 (centres unmarked) [Bufuralol HCl, 2-(tert-butylamino)-1-(7-ethyl-1-benzofuran-2-yl)ethan-1-ol]	2.24		1.62	−0.09			
CC(C)[C@H](N)C(=O)OCC(CO)OCn1cnc2c(=O)[nH]c(N)nc21 (stereo partly drawn) [Valganciclovir HCl, [2-[(2-amino-6-oxo-3H-purin-9-yl)methoxy]-3-hydroxypropyl] (2S)-2-amino-3-methylbutanoate]							PAH protein level (% of control) at 10 µM (Arg261Gln (R261Q) PAH [3]; COS-7, 48 h): 141%; PAH protein level (% of control) at 10 µM (wild-type PAH [4]; COS-7, 48 h): 138%
CCC[S+]([O-])c1ccc2[nH]c(NC(=O)OC)nc2c1 (centres unmarked) [Ricobendazole, methyl [5-(propane-1-sulfinyl)-1H-benzoimidazol-2-yl]-carbamate]	2.19	3.39	−0.48	2.57	104	154	
Nc1cc(N2CCCCC2)nc(N)[n+]1[O-] [Minoxidil, 2,6-diamino-4-(piperidin-1-yl)pyrimidine 1-oxide]					96.1	127	
